Target: T1, nitric oxide synthase (induced, from murine macrophage cell line J774A-1) (Mus musculus, UniProt P29477)
T1 construct: The reaction is started by adding 50 μl of cell lysate (prepared as above); endogenous in cells; host or cells: J774A-1 murine macrophage cell line, induced with LPS and IFN-gamma; crude cell lysate
Assay: Screen 1: nitric oxide synthase inhibition, 3H-L-arginine to 3H-L-citrulline conversion, lysate of induced J774A-1 cells
Format: biochemical
Details: standard to verify the procedure, 1 hour at room temperature, read-out: IC50 (50% inhibitory concentration)
Protocol: The activity of compounds of formula (I), or a pharmaceutically acceptable salt, enantiomer or racemate thereof, may be screened for nitric oxide synthase inhibiting activity by a procedure based on that of Förstermann et al., Eur. J. Pharm., 1992, 225; 161-165. Nitric oxide synthase converts ^3H-L-arginine into ^3H-L-citrulline which can be separated by cation exchange chromatography and quantified by liquid scintillation counting.
Enzyme is prepared, after induction, from the cultured murine macrophage cell line J774A-1 (obtained from the laboratories of the Imperial Cancer Research Fund). J774A-1 cells are cultured in Dulbeccos Modified Eagles Medium (D[MEM) supplemented with 10% foetal bovine serum, 4 mM L-glutamine and antibiotics (100 units/ml penicillin G, […] streptomycin & […] amphotericin B). Cells are routinely grown in […] flasks containing 35 ml medium kept at 37° C. and in a humidified atmosphere containing 5% CO2. […]
Labelled L-citrulline is separated from labelled L-arginine using Dowex AG-50W. […] After allowing the samples to dry the L-citrulline is quantified by scintillation counting.
In a typical experiment basal activity is 300 dpm per 75 μl sample which is increased to 1900 dpm in the reagent controls. […] Compounds are tested at a range of concentrations and from the inhibitions obtained IC50 values are calculated. […]

Row | SMILES | IC50 [µM]
1 | N=C(N)NN [aminoguanidine] | 10

Test system: not given
Assay: not given
Details: not given

Row | SMILES | melting point [°C]
2 | C[C@@H](CO)NCCC[C@@H](Oc1cc(Cl)ccc1C#N)c1ccccc1.O=C(O)C(=O)O [Example 13, 4-Chloro-2-[[(1R)-4-[[(1S)-2-hydroxy-1-methylethyl]amino]-1-phenylbutyl]oxy]-benzonitrile ethanedioate] | 186 to 187
3 | N#Cc1ccc(Cl)cc1O[C@H](CCCNCc1cccnc1)c1ccccc1.O=C(O)C(=O)O [Example 6, 4-Chloro-2-[[(1R)-1-phenyl-4-[(3-pyridinylmethyl)amino]butyl]oxy]-benzonitrile ethanedioate] | 188 to 189
4 | CNCCCC(Oc1cc(Cl)ccc1C#N)c1ccncc1.O=C(O)C(=O)O (stereo not shown) [Example 37, 4-Chloro-2-[4-(methylamino)-1-(4-pyridinyl)butoxy]benzonitrile oxalate] | 169 to 172
5 | CNCC[C@@H](Cc1ccccc1)Oc1cc(Cl)ccc1Cl.O=C(O)C(=O)O [Example 2, R-γ-(2,5-Dichlorophenoxy)-N-methyl-benzenebutanamine ethanedioate] | 167 to 169
6 | CNCCC[C@@H](Oc1cc(Cl)ccc1C#N)c1ccccc1.O=C(O)C(=O)O [Example 1, 4-Chloro-2-[[(1R)-4-(methylamino)-1-phenylbutyl]oxy]benzonitrile ethanedioate] | 167 to 169
7 | N#Cc1ccc(Cl)cc1O[C@H](CCCN1CCCC1)c1ccccc1.O=C(O)C(=O)O [Example 3, 4-Chloro-2-[[(1R)-1-phenyl-4-(1-pyrrolidinyl)butyl]oxy]-benzonitrile ethanedioate] | 157 to 158
8 | CNCCCC(Oc1cc(Cl)c(F)cc1C#N)c1ccccn1.O=C(O)C(=O)O (stereo not shown) [Example 32, 4-Chloro-5-fluoro-2-[4-(methylamino)-1-(2-pyridinyl)butoxy]benzonitrile oxalate] | 169 to 170
9 | N#Cc1ccc(Cl)cc1O[C@H](CCCNCCCO)c1ccccc1.O=C(O)C(=O)O [Example 11, 4-Chloro-2-[[(1R)-4-[(3-hydroxypropyl)amino]-1-phenylbutyl]oxy]-benzonitrile ethanedioate] | 111 to 112
10 | CNCCCC(Oc1cc(Cl)ccc1C#N)c1ccccn1.O=C(O)C(=O)O (stereo not shown) [Example 31, 4-Chloro-2-[4-(methylamino)-1-(2-pyridinyl)butoxy]benzonitrile oxalate] | 170 to 171
11 | C[C@H](CO)NCCC[C@@H](Oc1cc(Cl)ccc1C#N)c1ccccc1.O=C(O)C(=O)O [Example 12, 4-Chloro-2-[[(1R)-4-[[(1R)-2-hydroxy-1-methylethyl]amino]-1-phenylbutyl]oxy]-benzonitrile ethanedioate] | 163 to 164
12 | CNCC[C@@H](Cc1ccc(F)cc1)Oc1cc(Cl)ccc1Cl [Example 15, R-γ-(2,5-Dichlorophenoxy)-4-fluoro-N-methyl benzenebutanamine] | 160 to 162
13 | N#Cc1ccc(Cl)cc1O[C@H](CCCNC1CC1)c1ccccc1.O=C(O)C(=O)O [Example 10, 4-Chloro-2-[[(1R)-4-(cyclopropylamino)-1-phenylbutyl]oxy]-benzonitrile ethanedioate] | 173 to 174
14 | CNCC[C@@H](Cc1ccc(C)cc1)Oc1cc(Cl)ccc1Cl.O=C(O)/C=C/C(=O)O [Example 17, R-γ-(2,5-Dichlorophenoxy)-N,4-dimethyl-benzenebutanamine fumarate] | 126 to 130
15 | CCN(CCO)CCC[C@@H](Oc1cc(Cl)ccc1C#N)c1ccccc1.Cl | 141 to 144
16 | N#Cc1ccc(Cl)cc1O[C@H](CCCNCCO)c1ccccc1.O=C(O)C(=O)O [Example 9, 4-Chloro-2-[[(1R)-4-[(2-hydroxyethyl)amino]-1-phenylbutyl]oxy]-benzonitrile ethanedioate] | 158 to 159

Source: patent publication US6743939B2, “Phenylheteroalkylamine derivatives” (AstraZeneca AB, priority 2000, dated 2004)
